Where two headings read alike, the source gives them in different places. Residues, ends and D or L forms follow the SMILES beside them.
What was measured:
BIR-3 domain of cIAP-1 [1] = molecular target: BIR-3 domain of cIAP-1 (Homo sapiens, UniProt Q13490); experiment: Fluorescence polarization binding assay, cIAP-1 BIR-3 domain
Description: (§6) IC50 values (Table I) were determined from the plot using nonlinear least-squares analysis using GraphPad Prism.
(§7) We have utilized the specificity of this IAP binding motif in a fluorescence polarization assay to measure the binding affinities for cIAP-1 Antagonists. The fluorescence polarization assay consists of FP peptide {Sri: What is “FP Peptide”?}, and the recombinant BIR3 domain of the XIAP protein. The FP peptide and mimics of cIAP-1 N-terminus compete for binding to the BIR3 protein. […] If a peptide, peptidomimetic, or other small molecule being tested is a competitor, then it succeeds in displacing the FP peptide, resulting in a low mP value. Molecules that compete with the FP peptide can be titrated and IC50 values determined (GraphPad Prism nonlinear regression curve-fitting program) by plotting mp value as the direct measure of fraction bound vs. the log of the compound concentration.

SK-OV-3 cells = experiment: MTT cell growth assay in SK-OV-3 ovarian cancer cells; type: cell-based; conditions: Homo sapiens
Description: The MTT assay is an example of an assay that has been used for measuring cell growth as previously described (Hansen, M. B., Nielsen, S. E., and Berg, K. (1989) J. Immunol. Methods 119, 203-210) and incorporated herein by reference in its entirety. Briefly, SK-OV-3 cells were seeded in 96-well plates in McCoy's medium containing 10% fetal bovine serum […] (10,000 per well) and incubated overnight at 37° C.
μM) and the plates were incubated at 37° C. for an additional 72 hrs. This incubation time was optimal for measuring inhibitory effects of different analogs. 50 microliters of 5 mg/mL MTT reagent to each well was added and the plates were incubated at 37° C. for 3 hours. At the end of incubation period, 50 microliters of DMSO was added to each well to dissolve cells and the optical density (OD) of the wells was measured with a microplate reader (Victor^2 1420, Wallac, Finland) at 535 nm. Cell survival (CS) was calculated by the following equation:
CS=(OD treated well/mean OD control wells)×100%.
The EC50 (Table 1), defined as the drug concentration that results in 50% CS, was derived by calculating the point where the dose-response curve crosses the 50% CS point using GraphPad Prism.

BIR-3 domain of XIAP = BIR-3 domain of XIAP (Homo sapiens, UniProt P98170); experiment: Fluorescence polarization binding assay, XIAP BIR-3 domain
Description: as §6, §7

OVCAR-3 cell line = experiment: Synergistic toxicity with SN-38, MTT matrix; type: cell-based
Excerpt: MTT assays were setup by testing a matrix of concentrations of both drugs.

BIR-3 domain of cIAP-1 [2] = experiment: Fluorescence polarization binding assay, cIAP-1 BIR-3 domain; conditions: cIAP-1 relative to XIAP
Description: as §6, §7

cIAP-1 = molecular target: T1, cIAP-1 (Homo sapiens, UniProt Q13490); experiment: Western blot of cIAP-1 degradation in SKOV3 cells; type: cell-based; conditions: SK-OV-3 cells, 20 hrs, absence of bortezomib
T1 construct: endogenous in cells; host or cells: SKOV3 (SK-OV-3) cells
Description: (§1) SKOV3 cells were passed into six 60×15 mm tissue culture dishes 2 days before experiment. Cells appeared to be ˜80% confluent at time of harvest. […] A 10-fold dilution of this solution into medium A gave the 100 nM working solution.
(§2) Western blot analysis was carried out using standard technique. Briefly, cells were lysed using the MPER mammalian cell lysis solution (Bio-Rad #78503) to which 10 μl/mL of a 100× solution of HALT protease inhibitor cocktail (Bio-Rad #78410) has been added. To each dish of cells, 200 μl of the lysis solution plus protease inhibitors is added. The cells in each dish are scraped using a cell scraper and allowed to incubate with the reagent for 10 minutes. The lysates were transferred to pre-chilled microfuge tubes and spun for 20 minutes at 15,000×g at 4° C. The supernatant was transferred to a clean, chilled microfuge tube.
(§3) Next, the total protein content of the lysates was determined using the BCA Protein Assay according to the manufacturer's protocol and using interpolation from a standard curve generated with BSA.
(§4) The samples were normalized for protein content during preparation for gel electrophoresis. The samples were prepared using 2× Laemmli Sample buffer to which 200 mM DTT was added. […]

XIAP = molecular target: T2, XIAP (Homo sapiens, UniProt P98170); experiment: Western blot of XIAP degradation in SKOV3 cells; type: cell-based; conditions: SK-OV-3 cells, 20 hrs, absence of bortezomib
T2 construct: SKOV3 cells were passed into six 60×15 mm tissue culture dishes; endogenous in cells; host or cells: SKOV3 (SK-OV-3) cells
Description: as §1, §2, §3, §4

SK-OV-3^R cells = experiment: TRAIL sensitivity MTT assay in IAP Antagonist-resistant SK-OV-3 cells; type: cell-based
Description: (§5) Another unexpected observation we made was with respect to TRAIL sensitivity. IAP Antagonist-resistant SK-OV-3 cells (SK-OV-3^R) were generated by exposing the parental SK-OV-3 cells (SK-OV-3^S) to an IAP antagonist compound at a concentration that kills 95% of cells. Three days later, viable cells were transferred to a fresh flask and grown to confluency. Two weeks later, the cells were tested for IAP Antagonist sensitivity in an MTT assay as described above and as expected, found these cells to be resistant to IAP Antagonist cytotoxicity.

SK-OV-3^S cells = experiment: TRAIL sensitivity MTT assay in parental SK-OV-3 cells; type: cell-based
Description: as §5

[3] = SK-OV-3 cells, 72 hrs, read-out: MTT EC50

BIR-3 domain of XIAP, sequence (P98170 241-356 limits assumed): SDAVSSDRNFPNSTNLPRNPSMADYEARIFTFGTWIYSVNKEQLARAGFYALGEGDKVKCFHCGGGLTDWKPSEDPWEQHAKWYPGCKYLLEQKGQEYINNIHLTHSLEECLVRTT
BIR-3 domain of cIAP-1 (Homo sapiens, UniProt Q13490), sequence (Q13490 266-352 limits assumed): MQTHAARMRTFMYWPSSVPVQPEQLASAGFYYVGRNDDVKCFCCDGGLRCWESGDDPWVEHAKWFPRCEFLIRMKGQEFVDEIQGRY
T1 sequence (Q13490 whole entry): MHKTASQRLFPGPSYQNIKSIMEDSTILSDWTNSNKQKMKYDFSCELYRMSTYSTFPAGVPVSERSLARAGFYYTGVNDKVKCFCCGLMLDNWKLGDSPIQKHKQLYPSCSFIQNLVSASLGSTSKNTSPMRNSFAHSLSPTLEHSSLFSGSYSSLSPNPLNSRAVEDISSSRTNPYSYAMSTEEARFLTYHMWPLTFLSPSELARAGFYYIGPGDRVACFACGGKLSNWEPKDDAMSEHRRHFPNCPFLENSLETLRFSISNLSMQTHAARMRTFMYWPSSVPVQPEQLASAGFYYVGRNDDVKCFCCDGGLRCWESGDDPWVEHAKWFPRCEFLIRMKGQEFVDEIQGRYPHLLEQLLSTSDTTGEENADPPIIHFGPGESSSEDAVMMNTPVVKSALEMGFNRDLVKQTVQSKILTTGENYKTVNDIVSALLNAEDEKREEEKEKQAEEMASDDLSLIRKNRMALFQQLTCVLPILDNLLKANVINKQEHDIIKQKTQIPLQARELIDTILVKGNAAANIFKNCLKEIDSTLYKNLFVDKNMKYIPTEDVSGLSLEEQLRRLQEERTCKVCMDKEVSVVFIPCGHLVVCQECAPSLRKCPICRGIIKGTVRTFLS
T2 sequence (P98170 whole entry): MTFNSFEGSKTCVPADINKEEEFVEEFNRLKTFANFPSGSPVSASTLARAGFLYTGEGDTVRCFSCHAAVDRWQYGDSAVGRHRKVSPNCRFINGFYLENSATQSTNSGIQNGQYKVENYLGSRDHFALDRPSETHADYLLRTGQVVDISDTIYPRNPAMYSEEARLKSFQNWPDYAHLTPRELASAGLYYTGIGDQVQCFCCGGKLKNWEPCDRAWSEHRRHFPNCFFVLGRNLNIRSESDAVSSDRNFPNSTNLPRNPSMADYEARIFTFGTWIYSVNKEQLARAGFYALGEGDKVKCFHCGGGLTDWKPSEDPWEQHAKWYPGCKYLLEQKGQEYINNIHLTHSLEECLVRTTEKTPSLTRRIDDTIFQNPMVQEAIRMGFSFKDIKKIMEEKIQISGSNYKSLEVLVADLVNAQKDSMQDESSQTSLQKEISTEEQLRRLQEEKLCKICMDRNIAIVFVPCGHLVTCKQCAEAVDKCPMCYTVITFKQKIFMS

IC50 (BIR-3 domain of cIAP-1 [1]) [nM]	EC50 (SK-OV-3 cells; [3]) [nM]	IC50 (BIR-3 domain of XIAP) [nM]	Molecule	further results
< 10	< 10	10 to 100	CCC(C)[C@H](NC(=O)[C@H](C)NC)C(=O)N1CCC[C@H]1Cc1c2n(c3ccc(F)cc13)CCn1c-2c(C[C@@H]2CCCN2C(=O)[C@@H](NC(=O)[C@H](C)NC)C(C)CC)c2cc(F)ccc21 (stereo partly drawn) [A]	–
< 10	< 10	> 100	CN[C@@H](C)C(=O)N[C@H](C(=O)N1CCC[C@H]1Cc1c[nH]c2ccc(C)cc12)[C@@H](C)O [C]	–
< 10	10 to 100	> 100	CN[C@@H](C)C(=O)N[C@H](C(=O)N1C[C@@H](OC(C)=O)C[C@H]1Cc1c[nH]c2ccccc12)C(C)(C)C [E]	–
< 10	10 to 100	10 to 100	CN[C@@H](C)C(=O)N[C@H](C(=O)N1CCC[C@H]1Cc1c[nH]c2ccc(C)cc12)C(C)C [G]	–
10 to 100	10 to 100	10 to 100	CN[C@@H](C)C(=O)N[C@H](C(=O)N1C[C@@H](O)C[C@H]1Cc1c(-c2ccc(-c3[nH]c4ccccc4c3C[C@@H]3C[C@H](O)CN3C(=O)[C@@H](NC(=O)[C@H](C)NC)C(C)(C)C)cc2)[nH]c2ccccc12)C(C)(C)C [M]	–
10 to 100	< 10	10 to 100	CN[C@@H](C)C(=O)N[C@H](C(=O)N1CCC[C@H]1Cc1c(-c2ccc(-c3c(C[C@@H]4CCCN4C(=O)[C@@H](NC(=O)[C@H](C)NC)C(C)(C)C)c4ccc(F)cc4n3CCO)cc2)n(CCO)c2cc(F)ccc12)C(C)(C)C [N]	–
10 to 100	< 10	10 to 100	CN[C@@H](C)C(=O)N[C@H](C(=O)N1CCC[C@H]1Cc1c(-c2ccc(C(=O)OC)cc2)n(CCOCCOCCOC)c2cc(F)ccc12)C(C)(C)C [P]	–
10 to 100	< 10	10 to 100	CN[C@@H](C)C(=O)N[C@H](C(=O)N1CCC[C@H]1Cc1c(-c2ccc(F)cc2)n(CCOCCOCCOC)c2cc(F)ccc12)C(C)(C)C [Q]	cIAP-1 protein by western blot (cIAP-1): complete disappearance; XIAP protein by western blot (XIAP): complete disappearance
10 to 100	10 to 100	10 to 100	CN[C@@H](C)C(=O)N[C@H](C(=O)N1CCC[C@H]1Cc1c(-c2ccc(N3CCOCC3)cc2)n(CCOCCOCCOC)c2cc(F)ccc12)C(C)(C)C [R]	–

Second part, the molecule before the results:

Molecule	IC50 (BIR-3 domain of cIAP-1 [1]) [nM]	EC50 (SK-OV-3 cells; [3]) [nM]	IC50 (BIR-3 domain of XIAP) [nM]	further results
CC(C)[C@H](NC(=O)[C@H](C)N)C(=O)N1CCC[C@H]1C(=O)N[C@@H](Cc1ccccc1)C(=O)O [AVPF, reference compound] (H-AVPF-OH)	10 to 100	–	–	–
CC(C)[C@H](NC(=O)CN)C(=O)N1C[C@@H](Oc2ccccc2)C[C@H]1Cc1coc2ccccc12 [Compound I]	< 10	< 10	> 100	EC50 (SK-OV-3 cells; SK-OV-3, Table 10, read-out: MTT (SKOV-3)): < 10 nM; synergistic toxicity with SN-38 (synergistic volume) (OVCAR-3 cell line): comparable; IC50 (BIR-3 domain of XIAP; read-out: IC50 (XIAP), Table 10): > 100 nM; IC50 (BIR-3 domain of cIAP-1 [1]; read-out: IC50 (cIAP-1), Table 10): < 10 nM; binding to cIAP-1 more tightly than to XIAP (BIR-3 domain of cIAP-1 [2]): 117 fold
CN[C@@H](C)C(=O)N[C@H](C(=O)N1C[C@@H](OC(C)=O)C[C@H]1Cc1c[nH]c2ccccc12)[C@@H](C)O [D]	> 1000	–	> 1000	–
CN[C@@H](C)C(=O)N[C@H](C(=O)N1C[C@@H](OC(C)=O)C[C@H]1Cc1c[nH]c2ccccc12)C(C)C [F]	< 10	10 to 100	10 to 100	–
CC(C)[C@H](NC(=O)[C@H](C)N)C(=O)N1CCC[C@H]1Cc1c(-c2ccc(-c3oc4ccccc4c3C[C@@H]3CCCN3C(=O)[C@@H](NC(=O)[C@H](C)N)C(C)C)cc2)[nH]c2ccccc12 [J]	> 100	> 100	> 100	–
CN[C@@H](C)C(=O)N[C@H](C(=O)N1CCC[C@H]1Cc1cn(CCOCCn2cc(C[C@@H]3CCCN3C(=O)[C@@H](NC(=O)[C@H](C)NC)C3CCCCC3)c3ccccc32)c2ccccc12)C1CCCCC1 [K]	10 to 100	10 to 100	> 100	–
CC(C)[C@@H](NC(=O)[C@@H](C)N)C(=O)N1CCC[C@@H]1Cc1c(-c2ccc(-c3oc4ccccc4c3C[C@H]3CCCN3C(=O)[C@H](NC(=O)[C@@H](C)N)C(C)C)cc2)[nH]c2ccccc12 [L]	10 to 100	< 10	> 100	–
CN[C@@H](C)C(=O)N[C@H](C(=O)N1CCC[C@H]1Cc1c(-c2ccc(-c3c(C[C@@H]4CCCN4C(=O)[C@@H](NC(=O)[C@H](C)NC)C(C)C)c4ccc(F)cc4n3CCOC(C)=O)cc2)n(CCOC(C)=O)c2cc(F)ccc12)C(C)C [O]	> 1000	> 1000	> 1000	–
TRAIL: tumor necrosis factor-related apoptosis-inducing ligand, member of the TNF superfamily (protein, UniProt P50591 1-281, looked up) Tumor necrosis factor ligand …: MAMMEVQGGPSLGQTCVLIVIFTVLLQSLCVAVTYVYFTNELKQMQDKYSKSGIACFLKEDDSYWDPNDEESMNSPCWQVKWQLRQLVRKMILRTSEETISTVQEKQQNISPLVRERGPQRVAAHITGTRGRSNTLSSPNSKNEKALGRKINSWESSRSGHSFLSNLHLRNGELVIHEKGFYYIYSQTYFRFQEEIKENTKNDKQMVQYIYKYTSYPDPILLMKSARNSCWSKDAEYGLYSIYQGGIFELKENDRIFVSVTNEHLIDMDHEASFFGAFLVG	–	–	–	TRAIL sensitivity (SK-OV-3^R cells): sensitive to TRAIL; TRAIL sensitivity (SK-OV-3^S cells): resistant to TRAIL
